Results as given in PMC7571187, “Novel Acetylcholinesterase Inhibitors Based on Uracil Moiety for Possible Treatment of Alzheimer Disease” (Molecules, 2020).

How the values were obtained:
[1] = biological target: T1, hBChE (BChE from human plasma; serum hBChE) (Homo sapiens, UniProt P06276); experiment: Ellman assay, […] nm; format: biochemical
T1 construct: native, commercial from human plasma / serum (Sigma-Aldrich)

[2] = biological target: T2, hAChE (recombinant human AChE; AChE from human erythrocytes in Table 1) (Homo sapiens, UniProt P22303); experiment: Ellman assay, […] nm; format: biochemical
T2 construct: commercial recombinant human AChE (Sigma-Aldrich) per methods
T2 sequence (P22303 32-614): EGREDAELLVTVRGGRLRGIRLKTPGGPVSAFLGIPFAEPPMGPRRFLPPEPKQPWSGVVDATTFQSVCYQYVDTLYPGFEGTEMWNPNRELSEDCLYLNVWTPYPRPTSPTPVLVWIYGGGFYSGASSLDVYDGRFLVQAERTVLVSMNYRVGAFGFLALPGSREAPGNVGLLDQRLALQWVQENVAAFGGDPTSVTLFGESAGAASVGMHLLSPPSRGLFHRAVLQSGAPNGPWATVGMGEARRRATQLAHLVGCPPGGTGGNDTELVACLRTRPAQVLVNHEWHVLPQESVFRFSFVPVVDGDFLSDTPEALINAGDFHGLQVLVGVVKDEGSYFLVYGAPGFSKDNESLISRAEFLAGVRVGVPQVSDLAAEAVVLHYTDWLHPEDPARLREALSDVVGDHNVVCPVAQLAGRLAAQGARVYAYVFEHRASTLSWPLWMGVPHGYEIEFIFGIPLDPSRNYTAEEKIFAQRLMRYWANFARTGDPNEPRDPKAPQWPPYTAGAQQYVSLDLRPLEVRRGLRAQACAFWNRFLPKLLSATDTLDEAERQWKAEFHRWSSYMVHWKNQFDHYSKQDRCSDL

T1 sequence (P06276 29-602): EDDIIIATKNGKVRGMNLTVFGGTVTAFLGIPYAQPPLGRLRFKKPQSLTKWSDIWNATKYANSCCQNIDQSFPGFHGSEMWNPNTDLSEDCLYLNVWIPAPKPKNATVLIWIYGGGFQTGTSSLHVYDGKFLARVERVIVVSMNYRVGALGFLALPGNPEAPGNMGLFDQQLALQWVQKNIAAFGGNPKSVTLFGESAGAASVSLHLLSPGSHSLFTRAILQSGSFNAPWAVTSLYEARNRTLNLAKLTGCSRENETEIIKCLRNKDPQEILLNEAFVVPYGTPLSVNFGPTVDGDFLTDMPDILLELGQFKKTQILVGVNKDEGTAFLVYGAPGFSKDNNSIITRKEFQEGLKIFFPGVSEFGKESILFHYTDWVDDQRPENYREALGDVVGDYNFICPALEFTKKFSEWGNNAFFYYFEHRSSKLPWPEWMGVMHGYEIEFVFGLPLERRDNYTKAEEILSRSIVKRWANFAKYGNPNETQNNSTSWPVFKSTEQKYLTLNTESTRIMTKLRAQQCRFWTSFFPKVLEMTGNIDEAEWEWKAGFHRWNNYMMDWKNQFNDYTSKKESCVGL

SMILES: CCN(CCCCn1c(C)cc(=O)n(CCCCN(CC)Cc2ccccc2C#N)c1=O)Cc1ccccc1C#N [2a, 1,3-bis[4-(o-Nitrilebenzylethylamino)butyl]-6-methyluracil]
- IC50 [1]: 65000 nM
- IC50 [2]: 7 ± 0.5 nM

SMILES: CCN(CCCCn1c(=O)c2ccccc2n(CCCCN(CC)Cc2ccccc2C#N)c1=O)Cc1ccccc1C#N [4a, 1,3-bis[4-(o-Nitrilebenzylethylamino)butyl]-quinazoline-2,4-dione]
- IC50 [1]: 2620 ± 200 nM
- IC50 [2]: 5520 ± 400 nM

SMILES: Cc1cc(=O)n(CCCCCNCc2ccccc2C#N)c(=O)n1CCCCCNCc1ccccc1C#N [compound 3, 1,3-bis[5-(o-Nitrilebenzylamino)pentyl]-6-methyluracil]
- IC50 [1]: 1800 ± 170 nM
- IC50 [2]: 480 ± 30 nM

SMILES: Cc1cc(=O)n(CCCCCN=Cc2ccccc2C#N)c(=O)n1CCCCCN=Cc1ccccc1C#N [compound 13, 1,3-bis[5-(o-Nitrilebenzyl)aldiminopentyl]-6-methyluracil]
- IC50 [1]: 2160 ± 150 nM
- IC50 [2]: 2320 ± 170 nM
